The subject of test [1] is Aspergillus terreus. Briefly: Antimicrobial activity against Aspergillus terreus clinical isolate after 48 hrs by EUCAST test. It is filed as functional.
In test [2] the test system is Aspergillus terreus. The test can be described thus: Antimicrobial activity against Aspergillus terreus environmental isolate after 48 hrs by EUCAST test. It is filed as functional.

Converted amounts (≈) assume the structure as drawn. Numbered stars: 1 amine (or outer) side, 2 acyl side, 3 side chain; on linkers, the order of the positions; unused ones are H or OH. Bridge positions count the residues as written; N and C are the ends. Square brackets hold non-standard residues; d marks the D form. Peptide text beside a SMILES is read from it. * marks the point of attachment. hTyr(3S-OH,4S-OH,3'-OSO3H) = N[C@H](C(=O)O)[C@H](O)[C@@H](O)c1ccc(O)c(OS(=O)(=O)O)c1; pTerphenylCO(4''-OnC5H11) = CCCCCOc1ccc(-c2ccc(-c3ccc(C(=O)*)cc3)cc2)cc1; Orn(4R-OH,5R-OH) = O=C([C@H](C[C@@H](O)[C@@H](O)N[*:3])N[*:1])[*:2]; hTyr(3S-OH,4S-OH) = N[C@H](C(=O)O)[C@H](O)[C@@H](O)c1ccc(O)cc1; Pro(3S-OH,4S-Me) = C[C@H]1CN[C@H](C(=O)O)[C@H]1O; X1 = CCCCCOc1ccc(-c2cc(-c3ccc(C(=O)*)cc3)no2)cc1; Gln(3R-OH) = NC(=O)C[C@@H](O)[C@H](N)C(=O)O; Hyp = O=C(O)[C@@H]1C[C@@H](O)CN1

Usually MIC50 stands for an inhibitory concentration at the 50% level, which refers to growth in some studies and to a panel of isolates in others. The MIC90 is an inhibitory concentration at the 90% level, which refers to growth in some studies and to a panel of isolates in others. In the test with Aspergillus terreus [1], `C[C@@H](c1nc(-c2ccc(C#N)cc2)cs1)[C@](O)(Cn1cncn1)c1ccc(F)cc1F` [RAVUCONAZOLE] returned an MIC50 of 1 µg/mL (≈ 2.29 µM) and an MIC90 of 2 µg/mL (≈ 4.57 µM). Further, in the test on Aspergillus terreus [2], the MIC50 turned out to be 1 µg/mL (≈ 2.29 µM) and the MIC90 was 2 µg/mL (≈ 4.57 µM).
As for `CC[C@@H]([C@H](C)O)n1ncn(-c2ccc(N3CCN(c4ccc(OC[C@@H]5CO[C@@](Cn6cncn6)(c6ccc(F)cc6F)C5)cc4)CC3)cc2)c1=O` [POSACONAZOLE], the MIC50 with Aspergillus terreus [1] and in the test on Aspergillus terreus [2] was 0.12 µg/mL (≈ 0.171 µM) each time. In addition, the MIC90 in the test on Aspergillus terreus [1] and in the test on Aspergillus terreus [2] was 0.12 µg/mL (≈ 0.171 µM) each time.
For `CC[C@H](C)C[C@H](C)CCCCCCCCC(=O)N[C@H]1C[C@@H](O)[C@@H](NCCN)NC(=O)[C@@H]2[C@@H](O)CCN2C(=O)[C@H]([C@H](O)CCN)NC(=O)[C@H]([C@H](O)[C@@H](O)c2ccc(O)cc2)NC(=O)[C@@H]2C[C@@H](O)CN2C(=O)[C@H]([C@@H](C)O)NC1=O` [CASPOFUNGIN], the MIC50 with Aspergillus terreus [1] and in the test with Aspergillus terreus [2] was 1 µg/mL (≈ 0.915 µM) throughout. Also, the MIC90 against Aspergillus terreus [1] and with Aspergillus terreus [2] was 2 µg/mL (≈ 1.83 µM) in each case.
As to `C[C@@H]1[C@H](O)[C@@H](C)/C=C/C=C/C=C/C=C/C=C/C=C/C=C/[C@H](O[C@@H]2O[C@H](C)[C@@H](O)[C@H](N)[C@@H]2O)C[C@@H]2O[C@](O)(C[C@@H](O)C[C@@H](O)[C@H](O)CC[C@@H](O)C[C@@H](O)CC(=O)O[C@H]1C)C[C@H](O)[C@H]2C(=O)O` [AMPHOTERICIN B], in the test with Aspergillus terreus [1], the MIC50 stood at 2 µg/mL (≈ 2.16 µM) and the MIC90 came out at 2 µg/mL (≈ 2.16 µM). For the same molecule, in the test on Aspergillus terreus [2], the MIC50 turned out to be 2 µg/mL (≈ 2.16 µM) and the MIC90 came out at 2 µg/mL (≈ 2.16 µM).
As for `CCCCCOc1ccc(-c2ccc(-c3ccc(C(=O)N[C@H]4C[C@@H](O)[C@@H](O)NC(=O)[C@@H]5[C@@H](O)[C@@H](C)CN5C(=O)[C@H]([C@@H](C)O)NC(=O)[C@H]([C@H](O)[C@@H](O)c5ccc(O)cc5)NC(=O)[C@@H]5C[C@@H](O)CN5C(=O)[C@H]([C@@H](C)O)NC4=O)cc3)cc2)cc1` [ANIDULAFUNGIN] ({pTerphenylCO(4''-OnC5H11)}-[Orn(4R-OH,5R-OH)]T[Hyp][hTyr(3S-OH,4S-OH)]T[Pro(3S-OH,4S-Me)]; lactam 1-C), the MIC50 in the test with Aspergillus terreus [1] and in the test on Aspergillus terreus [2] was 0.015 µg/mL (≈ 0.0132 µM) throughout. The MIC90 with Aspergillus terreus [1] and against Aspergillus terreus [2] was 0.03 µg/mL (≈ 0.0263 µM) each time.
As for `CCCCCOc1ccc(-c2cc(-c3ccc(C(=O)N[C@H]4C[C@@H](O)[C@@H](O)NC(=O)[C@@H]5[C@@H](O)[C@@H](C)CN5C(=O)[C@H]([C@H](O)CC(N)=O)NC(=O)[C@H]([C@H](O)[C@@H](O)c5ccc(O)c(OS(=O)(=O)O)c5)NC(=O)[C@@H]5C[C@@H](O)CN5C(=O)[C@H]([C@@H](C)O)NC4=O)cc3)no2)cc1` [MICAFUNGIN] (X1-[Orn(4R-OH,5R-OH)]T[Hyp][hTyr(3S-OH,4S-OH,3'-OSO3H)][Gln(3R-OH)][Pro(3S-OH,4S-Me)]; lactam 1-C), in the test with Aspergillus terreus [1], the MIC50 worked out at 0.015 µg/mL (≈ 0.0118 µM) and the MIC90 was 0.03 µg/mL (≈ 0.0236 µM). In the test on Aspergillus terreus [2], this molecule returned an MIC50 of 0.015 µg/mL (≈ 0.0118 µM) and an MIC90 of 0.03 µg/mL (≈ 0.0236 µM).
As to `CN(C/C=C/C#CC(C)(C)C)Cc1cccc2ccccc12` [TERBINAFINE], the MIC50 in the test with Aspergillus terreus [1] and in the test on Aspergillus terreus [2] was 0.25 µg/mL (≈ 0.858 µM) in each case. In addition, the MIC90 against Aspergillus terreus [1] and against Aspergillus terreus [2] was 0.5 µg/mL (≈ 1.72 µM) in each case.
Take `C[C@@H](c1ncncc1F)[C@](O)(Cn1cncn1)c1ccc(F)cc1F` [VORICONAZOLE]: in the test with Aspergillus terreus [1], the MIC50 stood at 1 µg/mL (≈ 2.86 µM) and the MIC90 worked out at 2 µg/mL (≈ 5.73 µM). In the test with Aspergillus terreus [2], the MIC50 came to 1 µg/mL (≈ 2.86 µM) and the MIC90 came out at 2 µg/mL (≈ 5.73 µM).
For `CCC(C)n1ncn(-c2ccc(N3CCN(c4ccc(OCC5COC(Cn6cncn6)(c6ccc(Cl)cc6Cl)O5)cc4)CC3)cc2)c1=O` (stereo unspecified) [ITRACONAZOLE], in the test on Aspergillus terreus [1], the MIC50 is 0.125 µg/mL (≈ 0.177 µM) and the MIC90 came to 0.5 µg/mL (≈ 0.709 µM). In the test on Aspergillus terreus [2], this molecule displayed an MIC50 of 0.125 µg/mL (≈ 0.177 µM) and an MIC90 of 0.5 µg/mL (≈ 0.709 µM).
